{"source": "patent US20250375434A1", "about": "“SMALL MOLECULES AND METHODS FOR INDUCING CARDIOMYOCYTE PROLIFERATION” (UNIVERSITY OF VIRGINIA PATENT FOUNDATION, priority 2024, published 2025)", "key": {"[1]": {"system": "hiPSC-CMs (iCell Cardiomyocytes)", "test": "DNA content / ploidy and cell cycle phase analysis after 6 days of treatment"}, "VEGFR2 (KDR)": {"system": "VEGFR2 (KDR)", "details": "12 h treatment, compared to the DMSO negative control", "protocol": "To further investigate the role of RTKs in compound-induced proliferation, we profiled the activity of 49 RTKs using a specialized array with the same protein lysates used for the RPPA.\nCells were seeded in 60 mm Corning CellBind dishes, cultured for 6 days, serum starved for 4 h, and treated with compounds for 12 h with 3 replicates. At the end of the experiment, cells were treated with 1 mM peroxyvanadate (1 mM NaVO3, 0.1 μg/mL Catalase, 0.003% H2O2) for 15 min prior to cell lysis. Cells were then rinsed with ice-cold 1×PBS and lysed on ice for 15 min with lysis buffer (50 mM Tris-HCl pH 7.5, 150 mM NaCl, 0.1 mM EDTA, 1 mM DTT, 1 mM NaVO3, 0.5% TritonX-100) containing protease inhibitor cocktail (Sigma). Cell lysates were mechanically homogenized using 28-gauge syringes, spun down, and adjusted to equivalent concentrations. The Proteome Profiler Human Phospho-RTK Array Kit (R&D Systems) was used to measure phosphorylation activity of 49 RTKs. Briefly, the arrays with printed anti-RTK antibodies were blocked for 1 hour and incubated with 38.8 μg of total protein lysate overnight at 4° C. The arrays were then washed and incubated with anti-phospho-tyrosine antibodies conjugated to HRP and detected via chemiluminescence. Array films were scanned and Image Studio software (LI-COR) was used to quantify intensities of each spot. […]"}, "[2]": {"system": "hiPSC-CMs (iCell Cardiomyocytes)", "test": "Live-cell proliferation assay (change in number of cells over 6 days)", "protocol": "Using the same live-cell proliferation assay we developed in the previous study [13], we confirmed the 5-point concentration-response profiles (0.1-10.0 μM) in three independent manufacturing lots of iCell Cardiomyocytes (FIG. 7). Briefly, hiPSC-CMs were stained with a low, non-toxic concentration of Hoechst 33342 and the same imaging fields of view were collected at both initial (day 0) and final (day 6) timepoints. We quantified the change in the number of cells, binucleation events, and DNA content distribution using the image segmentation and analysis pipeline described in the previous study [13].\nICell Cardiomyocytes (Cellular Dynamics International) were seeded in 96-well or 384-well Corning CellBind plates at approximately 2.5×10^4 to 3.5×10^4 cells/cm^2. […] Cells were cultured for all experiments in a humidified environment at 37° C. with 5% CO2.\nPharmacology Metrics—Based on concentration-dependent responses of changes in cell number, we quantified area under the curve (AUC) as the sum of the relative changes in cell number across the five concentrations of compound. As a measure of potency, we performed cubic B-spline interpolation and then calculated the minimum concentration needed to achieve 50% of the maximum effect."}, "[3]": {"system": "hiPSC-CMs (iCell Cardiomyocytes)", "test": "Multinucleation analysis after 6 days of treatment", "type": "cell-based, human", "details": "10 μM inhibitor alone or with C3, compared to negative control or compound treatment alone", "method": "Multinucleation Analysis—Multinucleated cells were identified based on the distance between neighboring nuclei. This distance threshold was determined using Cardiac-Troponin T staining to visualize cell borders. A morphological closing operation with a circular structuring element was applied to the binary segmented mask to merge and classify nuclei in multinucleated cells."}, "[4]": {"system": "hiPSC-CMs (iCell Cardiomyocytes)", "test": "DNA synthesis assay (48 h EdU incorporation)", "protocol": "ICell Cardiomyocytes (Cellular Dynamics International) were seeded in 96-well or 384-well Corning CellBind plates at approximately 2.5×10^4 to 3.5×10^4 cells/cm^2. Cells were cultured for 2 days in iCell Cardiomyocytes Plating Medium (Cellular Dynamics International) supplemented with 1% Penicillin/Streptomycin (P/S; Gibco) followed by an additional 4 days in iCell Cardiomyocytes Maintenance Medium (Cellular Dynamics International) supplemented with 1% P/S. For all experiments, cells were first serum starved for 4 h and then treated in William's E medium without phenol red (Gibco) supplemented with Primary Hepatocyte Cell Maintenance Cocktail B (Gibco) containing P/S, ITS+, GlutaMAX, and HEPES. Cells were cultured for all experiments in a humidified environment at 37° C. with 5% CO2.\nEdU incorporation and labeling with copper catalyzed click chemistry was used to measure DNA synthesis. Cells were treated in the presence of 1 μM EdU (Invitrogen) for 48 h, and subsequently fixed and permeabilized prior to incubation with the EdU click chemistry reaction mix—100 mM Tris HCL pH 7.0 (Gentrox), 4 mM CuSO4 (Sigma), 100 mM ascorbic acid (Sigma), and 5 μM Alexa Fluor 546 Azide (Click Chemistry Tools). After labelling EdU, cells were stained with anti-Cardiac Troponin T (Abcam) and DAPI (Sigma).\nCustom image analysis and processing pipelines were developed and implemented in MATLAB to quantify the number of nuclei/cells, percent EdU positive objects, percent Ki67 positive objects, multinucleation, DNA content, cell cycle phases, and ploidy.\nClassification—The binary segmented mask and background subtracted images were used to calculate the mean intensities of Hoechst 33342, DAPI, Cardiac-Troponin T, EdU, and Ki67 staining for each segmented object. […] Marker positivity thresholds were determined using Rosin's unimodal thresholding algorithm [63] on the mean intensity values for each segmented object."}}, "data": [{"smiles": "Cc1cccc(-c2n[nH]cc2-c2ccc3ncccc3n2)n1", "note": "[C3, RepSox]", "values": [{"measurement": "endoreplication cycles", "setting": "[1]", "value": "without additional endoreplication cycles"}, {"measurement": "VEGFR2 (KDR) activation / expression", "setting": "VEGFR2 (KDR)", "value": "induced"}, {"measurement": "maximum-effect concentration", "setting": "[2]; 5-point concentration response 0.1-10 μM, 6 days", "value": 3.2, "unit": "µM"}, {"measurement": "proliferation (change in the number of cells over 6 days)", "setting": "[2]; compound alone at Emax concentration, 6 days", "value": "induces proliferation"}]}, {"smiles": "CNC(=O)c1ccccc1Sc1ccc2c(/C=C/c3ccccn3)n[nH]c2c1", "note": "[axitinib]", "values": [{"measurement": "increase in multinucleation", "setting": "[3]", "value": "over 2 fold"}]}, {"smiles": "C[C@]1(O)C[C@@H](c2nc(-c3ccc4ccc(-c5ccccc5)nc4c3)c3c(N)nccn32)C1", "note": "[linsitinib]", "values": [{"measurement": "effect of inhibitor on C3 induced DNA synthesis", "setting": "[4]; 0.1 μM inhibitor in combination with 3.2 μM C3, 48 hrs", "value": "modest effect in reducing"}, {"measurement": "effect of inhibitor on late-stage proliferation metrics", "setting": "[2]; 0.1 μM inhibitor in combination with 3.2 μM C3, day 6", "value": "no effect"}]}, {"smiles": "COc1cccc(-c2cc(=O)c3ccccc3o2)c1N", "note": "[PD98059]", "values": [{"measurement": "effect of inhibitor alone on DNA synthesis (EdU incorporation)", "setting": "[4]; 10 μM inhibitor alone, unstimulated hiPSC-CMs, 48 h", "value": "modest decreases"}, {"measurement": "effect of inhibitor on C3 induced DNA synthesis", "setting": "[4]; 10 μM inhibitor in combination with 3.2 μM C3, 48 h", "value": "attenuated"}, {"measurement": "effect of inhibitor on C3 induced proliferation (increase in cell numbers)", "setting": "[2]; 10 μM inhibitor in combination with 3.2 μM C3, day 6", "value": "only INK and PI3K inhibition attenuated"}]}]}
